# Results as given in patent US20230365571A1, “COMPOUNDS AND COMPOSITIONS AS Sppl2a INHIBITORS” (Novartis AG, priority 2020, published 2023).
# Legend:
# Type in all cases: cell-based
# γ-secretase = γ-secretase (Homo sapiens, UniProt P49768); assay: γ-secretase RGA (reporter gene assay, Notch1 substrate) in HEK293 cells; settings: Notch1-VP16-Gal4 substrate, Gal4-luciferase reporter, 24 h, read-out: g-secretase RGA IC50
# Description: The assay is based on the coupling of the proteolytic degradation of a membrane bound synthetic substrate, a VP16-Gal4 fusion protein with Notch1, which migrates to the nucleus upon cleavage, where it activates Gal4 driven expression of luciferase. […] The luciferase dependent-luminescence is plotted against the concentrations of compound to generate a dose response curve, which allows the calculation of the IC50 value. DNA vectors encoding human Notch1-VP16-Gal4 and a Gal4-luciferase reporter were transiently transfected in HEK293 cells, which express γ-secretase components endogenously. In a typical experiment 10 μg plasmid encoding the reporter Gal4-luciferase and 20 μg plasmid encoding the substrate Notch1-VP16-Gal4 were mixed together. The DNA mixture was combined with 107 μl FuGENE® (Promega), 735 μl Opti-MEM® (Life Technologies) and incubated for 5 minutes at RT. To this mixture 20 mL of concentrated HEK293 cells were added and thoroughly mixed. The cell suspension was distributed to a white solid 384 well plate. Within hours, 50 nl of compound in DMSO was stamped into the wells via pintool. […] After incubation at room temperature for 5 min, the plate was transferred to a luminometer and the luminescence was measured. The IC50 was determined by plotting compound concentration vs. normalized luminescence values.
# human SPPL2a [1] = molecular target: T1, human SPPL2a (Homo sapiens, UniProt Q8TCT8); assay: Sppl2a TL (translocation) imaging assay in U-2 OS cells; parameters: expressed in transfected cells; settings: U-2 OS cells expressing human SPPL2a and EGFP-TNFα(aa1-76) NTF substrate; 24 h
# T1 sequence (Q8TCT8 26-520): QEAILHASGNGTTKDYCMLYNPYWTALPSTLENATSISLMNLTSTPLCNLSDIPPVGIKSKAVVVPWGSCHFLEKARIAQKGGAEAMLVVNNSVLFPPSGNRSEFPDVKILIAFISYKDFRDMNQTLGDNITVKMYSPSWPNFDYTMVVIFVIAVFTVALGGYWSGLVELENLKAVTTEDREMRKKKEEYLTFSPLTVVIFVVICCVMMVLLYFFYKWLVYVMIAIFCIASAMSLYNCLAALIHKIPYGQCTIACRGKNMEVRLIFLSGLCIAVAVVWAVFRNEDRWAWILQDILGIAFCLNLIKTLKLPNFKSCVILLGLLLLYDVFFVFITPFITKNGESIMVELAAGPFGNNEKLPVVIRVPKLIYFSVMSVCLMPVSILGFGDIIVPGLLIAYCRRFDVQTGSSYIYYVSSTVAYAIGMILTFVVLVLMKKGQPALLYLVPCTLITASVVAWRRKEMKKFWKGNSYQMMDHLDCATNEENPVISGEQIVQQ
# Summary of the method: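 U-2 OS cells stably expressing human SPPL2a plus doxycycline-induced EGFP-TNFα(aa1-76) NTF, treated 24 h at 37 °C with inhibitor (100 μM–1 nM, 11 points, 0.9% DMSO, 5 μg/mL doxycycline). Imaging of nuclear-minus-cytoplasmic EGFP intensity; % inhibition versus 0.5 μM LY-411,575 and DMSO, IC50 by nonlinear regression; CC50 from cell count.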
# human SPPL2a [2] = molecular target: T1, human SPPL2a; assay: Sppl2a RGA (reporter gene assay) in HEK293 cells; parameters: expressed in transfected cells; host or cells: HEK293 (transient); settings: NT-TNF-VP16-Gal4 substrate, Gal4-luciferase reporter, 24 h
# Summary of the method: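 Cleavage of a membrane-bound TNF N-terminal–VP16-Gal4 substrate drives Gal4-luciferase expression in transiently transfected HEK293 cells also expressing human SPPL2a. Compounds incubated 24 h, 37 °C, 5% CO2; luminescence read, normalized and plotted against concentration for IC50.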
# Sppl2a CD74 = molecular target: T2, Sppl2a CD74 (Mus musculus, UniProt Q9JJF9); assay: CD74/p8 mouse whole blood assay, flow cytometry format; settings: Balb/c mouse whole blood, 5 h, CD74 signal on gated live B cells
# T2 construct: Mouse whole blood Balb/c mice (sodium citrate) was ordered by Bioreclamation LLC; tissue Bioreclamation LLC
# T2 sequence (Q9JJF9 26-523): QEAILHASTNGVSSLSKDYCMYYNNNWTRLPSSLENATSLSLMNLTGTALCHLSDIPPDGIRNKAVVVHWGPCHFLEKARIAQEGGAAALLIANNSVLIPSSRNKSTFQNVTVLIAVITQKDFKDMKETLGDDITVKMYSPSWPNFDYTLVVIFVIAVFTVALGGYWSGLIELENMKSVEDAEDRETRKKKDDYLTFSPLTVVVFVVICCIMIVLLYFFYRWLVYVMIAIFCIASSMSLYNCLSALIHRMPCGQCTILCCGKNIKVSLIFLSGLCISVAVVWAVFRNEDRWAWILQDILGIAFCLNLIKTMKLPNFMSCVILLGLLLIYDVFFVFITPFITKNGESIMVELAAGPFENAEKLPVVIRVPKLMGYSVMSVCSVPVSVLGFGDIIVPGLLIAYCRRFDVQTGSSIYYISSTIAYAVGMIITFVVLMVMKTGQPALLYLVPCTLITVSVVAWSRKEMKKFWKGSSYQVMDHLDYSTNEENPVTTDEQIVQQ
# Summary of the method: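 Balb/c mouse whole blood (citrate) incubated 5 h at 37 °C with compounds, 11-point dilution from 30 μM top. After RBC lysis, live B220+ B cells stained intracellularly for CD74 (FITC) and analysed by flow cytometry. IC50 fitted from CD74 median fluorescence intensity.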
Compound,IC50 (γ-secretase) [nM],IC50 (human SPPL2a [1]) [nM],IC50 (human SPPL2a [2]) [nM],IC50 (Sppl2a CD74) [nM]
"3,4-Dimethyl-N- ((R)-2-(((S)-11- oxo-2,3,10,11- tetrahydro- 1H,5H- benzo[d]pyrazolo [1,2- a][1,2]diazepin- 10- yl)carbamoyl)pen- tyl)isoxazole-5- carboxamide [Example 33]",> 10000,37,7,–
"C[C@H](CC(=O)Nc1cc(C(=O)NCC(F)(F)F)nn1C)C(=O)N[C@@H]1C(=O)N2CCCN2Cc2ccccc21 [Example 68, (R)-2-methyl-N^4-(1-methyl-3-((2,2,2-trifluoroethyl)car-bamoyl)-1H-pyrazol-5-yl)-N^1-((S)-11-oxo-2,3,10,11-tetrahydro-1H,5H-benzo[d]pyrazolo [1,2-a][1,2]diazepin-10-yl)succinamide]",–,3,34,329
"CC[C@H](CNC(=O)c1sc(C(=O)NCC(F)F)nc1C)C(=O)N[C@@H]1C(=O)N2CCCN2Cc2ccccc21 [Example 8, N^2-(2,2-Difluoroethyl)-4-methyl-N^5-((R)-2-(((S)-11-oxo-2,3,10,11-tetrahydro-1H,5H-benzo[d]pyrazolo [1,2-a][1,2]diazepin-10-yl)carbamoyl)butyl) thiazole-2,5-dicarboxamide]",–,3,4,2430
"C[C@H](CC(=O)Nc1cc(NC(=O)c2ccccc2F)nn1C)C(=O)N[C@@H]1C(=O)N2CCCN2Cc2ccccc21 [Example 69, (R)-N^4-(3-(2-Fluorobenzamido)-1-methyl-1H-pyrazol-5-yl)-2-methyl-N^1-((S)-11-oxo-2,3,10,11-tetrahydro-1H,5H-benzo[d]pyrazolo [1,2-a][1,2]diazepin-10-yl)succinamide]",–,3,9,1240
"COCc1nc(C)c(C(=O)NC[C@H](C(=O)N[C@@H]2C(=O)N3CCCN3Cc3ccccc32)C(F)(F)F)s1 [Example 52, 2-(Methoxymethyl)-4-methyl-N-((R)-3,3,3-trifluoro-2-(((S)-11-oxo-2,3,10,11-tetrahydro-1H,5H-benzo[d]pyrazolo [1,2-a][1,2]diazepin-10-yl)carbamoyl)pro-pyl)thiazole-5-carboxamide]",–,118,30,148
"CC(C)NC(=O)c1cc(NC(=O)C[C@H](C(=O)N[C@@H]2C(=O)N3CCCN3Cc3c(F)cccc32)C2CC2)n(C)n1 [Example 77, (S)-2-Cyclopropyl-N^1-((S)-6-fluoro-11-oxo-2,3,10,11-tetrahydro-1H,5H-benzo[d]pyrazolo [1,2-a][1,2]diazepin-10-yl)-N^4-(3-(isopropylcarba-moyl)-1-methyl-1H-pyrazol-5-yl)succinamide]",–,6,5,250
"COCCn1cc(-c2nc(Cl)c(NC(=O)C[C@@H](C)C(=O)N[C@@H]3C(=O)N4CCCN4Cc4ccccc43)s2)cn1 [Example 99, (R)-N^4-(4-Chloro-2-(1-(2-methoxyethyl)-1H-pyrazol-4-yl)thiazol-5-yl)-2-methyl-N^1-((S)-11-oxo-2,3,10,11-tetrahydro-1H,5H-benzo[d]pyrazolo [1,2-a][1,2]diazepin-10-yl)succinamide]",–,14,50,892
"Cc1nc(C(=O)NCC(F)F)sc1C(=O)NC[C@H](C(=O)N[C@@H]1C(=O)N2CCCN2Cc2ccccc21)C1CC1 [Example 6, N^5-((R)-2-Cyclopropyl-3-oxo-3-(((S)-11-oxo-2,3,10,11-tetrahydro-1H,5H-benzo[d]pyrazolo [1,2-a][1,2]diazepin-10-yl)amino)propyl)-N^2-(2,2-difluoroethyl)-4-methylthiazole-2,5-dicarboxamide]",–,2,2,1560
"CC(C)C(=O)Nc1cc(NC(=O)C[C@@H](C)C(=O)N[C@@H]2C(=O)N3CCCN3Cc3ccccc32)n(C)n1 [Example 62, (R)—N^4-(3-Isobutyramido-1-methyl-1H-pyrazol-5-yl)-2-methyl-N^1—((S)-11-oxo-2,3,10,11-tetrahydro-1H,5H-benzo[d]pyrazolo[1,2-a][1,2]diazepin-10-yl)succinamide]",–,0.3,57,317
"CCn1nc(-c2ccco2)cc1NC(=O)C[C@@H](C)C(=O)N[C@@H]1C(=O)N2CCCN2Cc2ccccc21 [Example 85, (R)-N^4-(1-Ethyl-3-(furan-2-yl)-1H-pyrazol-5-yl)-2-methyl-N^1-((S)-11-oxo-2,3,10,11-tetrahydro-1H,5H-benzo[d]pyrazolo [1,2-a][1,2]diazepin-10-yl)succinamide]",–,10,22,203
"Cc1nc(C(=O)NC(C)C)sc1C(=O)NC[C@H](C(=O)N[C@@H]1C(=O)N2CCCN2Cc2ccccc21)C1CC1 [Example 27, N^5-((R)-2-Cyclopropyl-3-oxo-3-(((S)-11-oxo-2,3,10,11-tetrahydro-1H,5H-benzo[d]pyrazolo [1,2-a][1,2]diazepin-10-yl)amino)propyl)-N^2-isopropyl-4-methylthiazole-2,5-dicarboxamide]",–,26,5,947
"Cc1nc(C(=O)NC(C)C)sc1C(=O)NC[C@H](C(=O)N[C@@H]1C(=O)N2CCCN2Cc2ccccc21)C(F)(F)F [Example 14, N^2-Isopropyl-4-methyl-N^5-((R)-3,3,3-trifluoro-2-(((S)-11-oxo-2,3,10,11-tetrahydro-1H,5H-benzo[d]pyrazolo [1,2-a][1,2]diazepin-10-yl)carbamoyl)pro-pyl)thiazole-2,5-dicarboxamide]",–,7,3,269
"Cc1nc(NC(=O)C(C)C)sc1C(=O)NC[C@@H](C)C(=O)N[C@@H]1C(=O)N2CCCN2Cc2ccccc21 [Example 4, 2-Isobutyramido-4-methyl-N-((R)-2-methyl-3-oxo-3-(((S)-11-oxo-2,3,10,11-tetrahydro-1H,5H-benzo[d]pyrazolo [1,2-a][1,2]diazepin-10-yl)amino)propyl) thiazole-5-carboxamide]",–,1,12,100
"CC[C@H](CNC(=O)c1sc(C(=O)NC)nc1C)C(=O)N[C@@H]1C(=O)N2CCCN2Cc2ccccc21 [Example 13, N^2,4-Dimethyl-N^5-((R)-2-(((S)-11-oxo-2,3,10,11-tetrahydro-1H,5H-benzo[d]pyrazolo [1,2-a][1,2]diazepin-10-yl)carbamoyl)butyl) thiazole-2,5-dicarboxamide]",–,6,8,161
